# Test results as given in patent publication EP0380370A2, “Inhibiting tumour recurrence after surgical resection” (The Children's Medical Center Corporation, priority 1989, dated 1990).
# Where two headings read alike, the source gives them in different places. Where a SMILES comes first, the peptide text is derived from it.
# Experiments:
# B16-F10 [1] = experiment: in vitro tumor cell attachment assay on gelatinized culture plates (acid phosphatase colorimetric readout); type: cell-based
# Description: The following two examples of assays for suitable agents are designed to approximate a wound environment, and thus act as quick tests for suitable agents for practical use in particular circumstances. These assays are not limiting to the application. One example of an in vitro assay for determining the effect of one of the above agents on tumor cell attachment was performed as follows. Gelatinized 96-well tissue culture plates (Co-star, Cambridge, MA) were prepared by treating a standard culture plate with 100 microliters of 1.5% gelatin (Difco, Detroit, MI) in phosphate-buffered saline (PBS) and incubating the plate at 37°C for at least 24 hours. The solution was then aspirated and the cells washed twice with 200 microliters of PBS prior to use. Test agents were diluted in Dulbecco's Modified Eagles Medium (DMEM; Gibco Laboratories, Grand Island, NY) containing 10% fetal calf serum (FCS; Gibco), and 100 microliters of the diluted agent added to each well. […] The cells were grown in DMEM supplemented with 10% FCS, 2 mM glutamine and 100 units per ml penicillin and streptomycin.
# After the cells and agent were incubated, the medium was aspirated from each well and the well washed twice with 200 microliters of PBS. […] Briefly, 100 microliters of an acid phosphatase reagent (0.1M sodium acetate, 0.01M p-nitrophenyl phosphate, 0.1% Triton-X 100) was added to each well, the plates incubated at 37°C for two hours, and 10 microliters 1N NaOH added to each well. The optical density of each well was read at 405nm on a Biotek ELISA reader. The optical density is directly related to cell number. The results were expressed as percent of optical density in untreated control wells,and represent the mean of at least three wells.
# B16-F10 [2] = experiment: reversibility test: unattached cells washed and replated on gelatinized plates in new medium; type: cell-based; conditions: cells replated in fresh medium in new dishes
# Description: In order to determine whether inhibition of cell attachment was non-toxic and reversible with any particular agent, the tumor cells were incubated in the presence of the agent and unattached cells collected, washed twice with serum containing medium, and replated on gelatinized well plates in new culture medium. Control cells were handled in a similar manner, except that they were removed from wells 16 hours after incubation by trypsinization. After incubation for 4-16 hours, the medium was aspirated, the wells washed twice with 200 microliters of PBS, and the remaining attached cells trypsinized and counted with a Coulter counter.
# cancer cells = conditions: cited from earlier work
# B16-F10 melonoma = type: in vivo, C57 B1/6 mice
# Description: Inhibitors of tumor cell attachment in vivo are tested by their ability to block tumor cell attachment in a surgical wound. Wounds were made on the backs of C57 B1/6 mice (Charles River Laboratories, Wilmington, MA) using aseptic procedures under methoxyflurane anesthesia (Pittman-Moore Inc., Washington Crossing, NJ). […] The scissors were used to create a lateral subcutaneous pocket off a dorsal mid-line wound in an uncontaminated animal. Prior to use, the scissors were inspected to insure that no visible tissue was present on them. Prior to closure, the wounds were vigorously irrigated with 3ml of Ringers lactate supplemented with a chosen agent. Excess fluid was then expressed and the wound closed with skin clips.
compound,measurement,setting,value
"N=C(N)NCCC[C@H](NC(=O)CN)C(=O)NCC(=O)N[C@@H](CCC(=O)O)C(=O)N[C@@H](CO)C(=O)N1CCC[C@H]1C(=O)O [GRGESP, glycine-arginine-glycine-glutamate-serine-proline] (H-GRGESP-OH)",attachment of B16 melanoma cells,B16-F10 [1]; compared with GRGDSP,inhibited attachment of B16 melanoma cells but was less effective
"N=C(N)NCCC[C@H](NC(=O)CN)C(=O)NCC(=O)N[C@@H](CC(=O)O)C(=O)N[C@@H](CO)C(=O)N1CCC[C@H]1C(=O)O [GRGDSP, glycine-arginine-glycine-aspartate-serine-proline]",reversibility of inhibition of tumor cell attachment,B16-F10 [2],reversibly inhibited
same,concentrations at which tumor cell attachment was inhibited,B16-F10 [1],greater than 10 mg/ml
[Na+].[O-]Cl [sodium hydrochlorite],preventing tumor growth,cancer cells; 0.5% solution buffered to pH 9,as effective as the above chemicals
same,toxicity to the animal,"cancer cells; in vivo, pH 9",considerably less toxic
"O=C(O)[C@@H]1CCN1 [LACA, L-azetidine-2-carboxylic acid]",reversibility of inhibition of tumor cell attachment,B16-F10 [2],reversibly inhibited
same,minimal effective concentration,"B16-F10 [1]; Mus musculus, B16-F10, read-out: doses at which tumor cell attachment was inhibited",> 25 µg/mL
monoxychlorosene,toxic effects locally and systemically,cancer cells; in vivo,highly toxic effects
same,toxicity to tissues,cancer cells; in vivo,toxic to tissues
same,wound healing process,cancer cells; in vivo,delayed the wound healing process
same,preventing tumor growth,cancer cells; one percent solution,ineffective
same,preventing tumor growth,cancer cells; two percent solutions,effective
N=C(N)NCCC[C@H](NC(=O)CN)C(=O)NCC(=O)N[C@@H](CC(=O)O)C(=O)N[C@@H](CO)C(=O)O [GRGDS],infection from use of the agents,"B16-F10 melonoma; mouse, in vivo",No evidence of infection
same,wound healing process,"B16-F10 melonoma; mouse, in vivo",nor was the wound healing process delayed
same,average volume of tumors formed in other animals,B16-F10 melonoma; versus control animals,significantly smaller
same,formation of tumors in animals,B16-F10 melonoma; wound irrigation,inhibited formation of a significant percentage of tumors
